Read-outs that look alike come from different tables or passages of the source.
Assays:
[1] = tested on: U87; test: Glioma cell viability (MTT) under XRT-TMZ with or without CRAd-S-pk7; format: cell-based, human; details: for IC50: Homo sapiens, U-87 MG
Description: (§1) FIGS. 42A and 42B illustrate antitumor effects of CRAd-Survivin-pk7 (CRAd-S-pk7)-loaded NSCs and their combination with XRT-TMZ against glioma cell lines in vitro according to one embodiment. (FIG. 42A): Cytotoxicity of patient-derived GBM43 tumor cells 96 hours after coculture with CRAd-S-pk7-loaded NSCs at the NSC to GBM43 cell ratios of 1:0, 1:2, 1:5, 1:10, or 1:50. Top: Representative light microscope pictures of GBM43 viability. Bottom: Mean luciferase intensity values represented as the percentages of viable glioma cells compared with control. (FIG. 42B): U251 and U87 glioma cell viability measured by 3-(4,5-dimethylthiazol-2-yl)-2,5-diphenyltetrazolium bromide at 96 hours after treatment. The addition of CRAd-S-pk7 (50 infectious units) to conventional XRT-TMZ therapy reduced the percentage of glioma cell viability in both tested cell lines. […] Abbreviations: NSC, neural stem cell; OV, oncolytic virus; TMZ, temozolomide; XRT, radiation therapy.
(§2) FIGS. 44A and 44B show the optimization of combination therapy in vitro according to one embodiment. (FIG. 44A): Cytotoxicity of U251 and U87 glioma cell lines and GBM39 patient-derived cell line treated with Rx-OV or OV-Rx. Left: The percentage of viability of glioma cells measured by 3-(4,5-dimethylthiazol-2-yl)-2,5-diphenyltetrazolium bromide 96 hours after treatment. Right: Representative light microscope pictures of U87 glioma cell viability (magnification, ×10). (FIG. 44B): Percentage of apoptotic GBM43 cells at 48 hours after treatment with Rx-OV or OV-Rx treatment protocols as measured by the expression of active caspase-3-positive tumor cells by FACS (bottom). Top: Representative FACS plots. *, p<0.05; **, p<0.01; ***, p<0.001. Abbreviations: DMSO, dimethyl sulfoxide; OV-Rx, ionizing radiation-temozolomide therapy 24 hours after oncolytic virus; PE, phycoerythrin; Rx-OV, oncolytic virus 24 hours after ionizing radiation-temozolomide therapy.
(§3) For all studies, the cells and mice received XRT in accordance with the University of Chicago's radiation safety guidelines and protocols. All cells received a single dose of 2 Gy XRT. For animal studies, 10 Gy fractioned dose radiotherapy (2 Gy for 5 consecutive days) was used. The animals were irradiated with a lead cover shielding their entire body, with only their heads exposed. […] For in vivo studies, the mice received 2.5, 5, 10, or 30 mg/kg TMZ via intraperitoneal injection.
(§4) A green fluorescent protein (GFP) expressing HB1.F3-CD cell line was generated as described elsewhere (Ahmed et al. 2011a). GBM43-Fluc cells were plated in 12-well plates and cocultured with HB1.F3-CDGFP cells loaded with CRAd-S-pk7 in the following NSC to glioma cell ratios: 1:0, 1:2, 1:5, 1:10, and 1:50. After 96 hours, the cells were collected, lysed with reporter lysis buffer (Promega, Madison, Wis., http://www.promega.com), and added to luciferase assay reagent (Promega) according to the manufacturer's protocol. Following lysate preparation, the mean fluorescence intensity (MFI) was estimated for each group of cocultured cells using the GloMax 20/20 Luminometer (Promega). The mean luciferase intensity values were represented as the percentage of cells viable compared with mock cells. U251, U87, and GBM39 cell viability was determined using 3-(4,5-dimethylthiazol-2-yl)-2,5-diphenyltetrazolium bromide (MTT) cell proliferation kit (Roche Diagnostics, Mannheim, Germany, http://www.roche-applied-science.com). The viability was subsequently determined by MTT as described by the manufacturer's protocol. Cell viability was expressed as the percentage of cells alive compared with the dimethyl sulfoxide-treated control.
(§5) Next, it was tested whether CRAd-S-pk7 could enhance the therapeutic efficacy of conventional XRT-TMZ. U251 or U87 glioma cells were treated with conventional therapy consisting of 2 Gy XRT and varying concentrations of TMZ (0-1×10^3 µM) or conventional treatment plus 50 IU of CRAd-S-pk7, and cell viability was measured by MTT at 96 hours. […]

[2] = tested on: U251; test: as above; format: cell-based, human; details: for IC50: Homo sapiens, U-251
Description: as §1, §2, §3, §4, §5

[3] = tested on: GBM39; test: as above; format: cell-based; details: Homo sapiens, treated with XRT (2 Gy) simultaneously
Description: as §2, with “Top: Representative FACS plots. *, p<0.05; **, p<0.01; ***, p<0.001. Abbreviations: DMSO, dimethyl sulfoxide; OV-Rx, ionizing radiation-temozolomide therapy 24 hours after oncolytic virus; PE, phycoerythrin; Rx-OV, oncolytic virus 24 hours after ionizing radiation-temozolomide therapy.” left out
A green fluorescent protein (GFP) expressing HB1.F3-CD cell line was generated as described elsewhere (Ahmed et al. 2011a). […] Following lysate preparation, the mean fluorescence intensity (MFI) was estimated for each group of cocultured cells using the GloMax 20/20 Luminometer (Promega). […] U251, U87, and GBM39 cell viability was determined using 3-(4,5-dimethylthiazol-2-yl)-2,5-diphenyltetrazolium bromide (MTT) cell proliferation kit (Roche Diagnostics, Mannheim, Germany, http://www.roche-applied-science.com). The viability was subsequently determined by MTT as described by the manufacturer's protocol. Cell viability was expressed as the percentage of cells alive compared with the dimethyl sulfoxide-treated control. […]

[4] = human, in vivo; cited from earlier work
[5] = tested on: HB1.F3-CD; test: TMZ IC50 with simultaneous XRT; format: cell-based; details: Homo sapiens; treated with XRT (2 Gy) simultaneously
Description: as §3
NSCs have an inherent pathotropism toward glioma, which is critical for their utility as cell carriers. Therefore, it is critical that such intrinsic molecular properties and phenotypes of NSCs are maintained during radio-chemotherapy (XRT-TMZ). […] Oct4, a marker of self-renewal for undifferentiated cells, was expressed in 87.6±1.1% of the loaded NSCs. […] The percentage of Oct4 positive cells decreased to 81±2% (*, p<0.05), whereas the MFI was not reduced. […] Because of the high priority of safety when working with the undifferentiated v-myc immortalized HB1.F3-CD stem cell line (Kim et al. 2008), an in vivo safety monitoring experiment was performed to test the effect of XRT-TMZ on loaded HB1.F3-CD cellular transformation. CRAd-S-pk7-loaded NSCs were implanted in the brains of nude mice with no tumor burden. […]

[6] = 2 Gy XRT plus 50 IU of CRAd-S-pk7, MTT 96 hours, read-out: IC50 values for TMZ
[7] = treated with XRT (2 Gy) simultaneously, read-out: IC50

## Cn1nnc2c(C(N)=O)ncn2c1=O [TMZ, temozolomide]
[1]; [6]
  IC50: 10 µM
[1]; [7]
  IC50: 25 µM
[1]; XRT-TMZ
  decrease of TMZ IC50 when OV was added: 15 µM
[2]; [6]
  IC50: 13 µM
[2]; [7]
  IC50: 44 µM
[2]; XRT-TMZ
  decrease of TMZ IC50 when OV was added: 31 µM
[3]
  IC50: 50 µM
[4]
  intratumoral concentration (likely range): 5 to 50 µM
  peak concentration in patient's blood: 50 µmol/L
  peak concentration in the cerebral spinal fluid: 5 µmol/L
[5]
  IC50: 15 µM
